In patent US9643933B2, “Compounds useful as antibiotic tolerance inhibitors” (priority 2013, dated 2017):

What follows are compounds tested on Pyocyanin (assay: Pyocyanin Inhibition Assay). Conditions: Pseudomonas aeruginosa, PA14, 24 h, read-out: Pyocyanin Inhibition No. IC50 (μM).
Type: cell-based, P. aeruginosa, strain PA14
Protocol: Test compounds are dissolved in DMSO at 10 mM and stored at −20° C. until needed. Seven test concentrations from 0.0032 micromolar to 31.6 micromolar are used for each compound.
P. aeruginosa, strain PA14, is inoculated into 5 mL of LB broth in a 15-mL sterile glass culture tube and incubated overnight at 37° C. under shaking (˜240 rpm). The overnight culture is then diluted in LB Broth to give an OD600=0.04 (T0 culture). Colony Forming Units (CFU)/mL of the overnight culture and T0 culture are determined by a series of 1:10 serial dilutions in sterile saline. 4×20 μL of each dilution is seeded on LB agar plates and incubated at 35±2° C. for 20 hours. CFU/mL is determined from the dilution that gives 2 to 50 colonies/20 μL.
For concentration response curve (CRC) experiments, internal standard, 2-((5-nitro-1H-indol-2-yl)thio)-N-(4-phenoxyphenyl)acetamide, a compound previously identified as an MvfR inhibitor (see Example 1 of US 2014-0066454 (WO 2012/116010)), and test compounds are serially diluted in DMSO to 200 times each final concentration (0.5% DMSO fmal), and 1 μL/well is dispensed in duplicate into 2 mL wells of a 96-well deep well plate. 200 μL/well of T0 culture are added to each internal standard/test compound well. Wells containing only T0 culture (200 200 μL/well) are used to determine pyocyanin control level and wells containing only LB broth (blank wells) are also included in the plate.
The plate is sealed and incubated at 37° C. under shaking (˜700 rpm) using a microtiter shaker for 24 hours. At the end of the incubation period, the plate is centrifuged at 4,000 g for 40 minutes at room temperature, 100 μL/well of the supernatant is transferred to a 96-microtiter PS flat-bottom plate, and absorbance at 690 nm is determined using SPECTROstar® Nano microplate reader. Pyocyanin concentration (M) is determined using the equation C=A690/(ε×d), where ε is the Pyocyanin extinction coefficient, at A690 nm ε is 4,310 M^−1 cm^−1 and d is the experimentally derived pathlength. The level of pyocyanin in the presence of test compound is expressed as percentage of inhibition with respect to the control. Curve fitting and IC50 determination were carried out using a four-parameter logistic model using GraphPad Prism v.5.

Compared with O=C(CSc1nc2cc(Cl)ccc2[nH]1)Nc1ccc(Oc2cccnc2)cc1O [Compound 162, 2-((5-Chloro-1H-benzo[d]imidazol-2-yl)thio)-N-(2-hydroxy-4-(pyridin-3-yloxy)phenyl)acetamide], Cc1cc(Oc2cccnc2)ccc1NC(=O)CSc1nc2cc(Cl)ccc2[nH]1 [Compound 163, 2-((5-Chloro-1H-benzo[d]imidazol-2-yl)thio)-N-(2-methyl-4-(pyridin-3-yloxy)phenyl)acetamide] is higher in IC50: < 0.1 µM for the first, 0.1 to 1 µM for the second.

CS(=O)(=O)c1ccc2[nH]c(SCC(=O)Nc3ccc(C#N)cc3)nc2c1 [Compound 107] and N#Cc1ccc(NC(=O)CSc2nc3cc(S(N)(=O)=O)ccc3[nH]2)cc1 [Compound 108] cannot be ordered by IC50: > 10 µM for the first, > 10 µM for the second.

O=C(CSc1nc2ccc(-c3ncccn3)cc2[nH]1)Nc1ccc(Cl)cc1 [Compound 114] and O=C(CSc1nc2ccc(-c3ncco3)cc2[nH]1)Nc1ccc(Cl)cc1 [Compound 127] cannot be ordered by IC50: > 10 µM for the first, > 10 µM for the second.

O=C(CSc1nc2ccncc2[nH]1)Nc1ccccc1F [Compound 132] and O=C(CSc1nc2ccncc2[nH]1)Nc1ccc(Cl)cc1 [Compound 100] cannot be ordered by IC50: > 10 µM for the first, > 10 µM for the second.

Cc1ccc(NC(=O)C(C)Sc2nc3ccc(Cl)cc3[nH]2)cc1 (stereo not drawn) [Compound 120] and CC(=O)c1ccc(NC(=O)CSc2nc3ccc(C)cc3[nH]2)cc1 [Compound 124] cannot be ordered by IC50: > 10 µM for the first, > 10 µM for the second.

First: Cc1cc(Oc2cccnc2)ccc1NC(=O)CSc1nc2cc(C#N)ccc2[nH]1 [Compound 168, 2-((5-Cyano-1H-benzo[d]imidazol-2-yl)thio)-N-(2-methyl-4-(pyridin-3-yloxy)phenyl)acetamide]
Second: N#Cc1ccc2[nH]c(SCC(=O)Nc3ccc(Oc4cccnc4)cc3Cl)nc2c1 [Compound 170, N-(2-chloro-4-(pyridin-3-yloxy)phenyl)-2-((5-cyano-1H-benzo[d]imidazol-2-yl)thio)acetamide]
The IC50 of the first is higher: 0.1 to 1 µM for the first, < 0.1 µM for the second. The second is the more potent here.

Compared with Cc1cc(Cl)ccc1NC(=O)CSc1nc2cc(C#N)ccc2[nH]1 [Compound 160, N-(4-chloro-2-methylphenyl)-2-((5-cyano-1H-benzo[d]imidazol-2-yl)thio)acetamide], N#Cc1ccc2[nH]c(SCC(=O)Nc3ccc(Cl)cc3Cl)nc2c1 [Compound 167, 2-((5-Cyano-1H-benzo[d]imidazol-2-yl)thio)-N-(2,4-dichlorophenyl)acetamide] is lower in IC50: 1 to 10 µM for the first, 0.1 to 1 µM for the second. The second is the more potent here.

N#Cc1ccc(NC(=O)CSc2nc3ncccc3[nH]2)cc1 [Compound 103] and N#Cc1ccc(NC(=O)CSc2nc3cnccc3[nH]2)cc1 [Compound 102] cannot be ordered by IC50: > 10 µM for the first, > 10 µM for the second.

O=C(CSc1nc2cccnc2[nH]1)Nc1ccc(Cl)cc1 [Compound 101] and Cc1ccc(NC(=O)CSc2nc3cccnc3[nH]2)cc1 [Compound 133] cannot be ordered by IC50: > 10 µM for the first, > 10 µM for the second.

First: O=C(C[C@H](O)c1nc2ccc(Cl)cc2[nH]1)Nc1ccc(Oc2cccnc2)cc1 [Compound 172, (S)-3-(6-chloro-1H-benzo[d]imidazol-2-yl)-3-hydroxy-N-(4-(pyridin-3-yloxy)phenyl)propanamide]
Second: COc1cc(Cl)cc2nc(SCC(=O)Nc3ccc(Oc4cccnc4)cc3)[nH]c12 [Compound 164, 2-((5-chloro-7-methoxy-1H-benzo[d]imidazol-2-yl)thio)-N-(4-(pyridin-3-yloxy)phenyl)acetamide]
The IC50 of the first is higher: 1 to 10 µM for the first, < 0.1 µM for the second.

CN(C)C(=O)c1ccc2[nH]c(SCC(=O)Nc3ccc(Cl)cc3)nc2c1 [Compound 118] and CN(C)C(=O)c1ccc2[nH]c(SCC(=O)Nc3ccc(C#N)cc3)nc2c1 [Compound 119] cannot be ordered by IC50: > 10 µM for the first, > 10 µM for the second.

CNC(=O)c1ccc2[nH]c(SCC(=O)Nc3ccc(C#N)cc3)nc2c1 [Compound 129] and CNC(=O)c1ccc2[nH]c(SCC(=O)Nc3ccc(Cl)cc3)nc2c1 [Compound 115] cannot be ordered by IC50: > 10 µM for the first, > 10 µM for the second.

N#Cc1ccc(NC(=O)CSc2nc3cc(O)ccc3[nH]2)cc1 [Compound 130] and O=C(CSc1nc2cc(O)ccc2[nH]1)Nc1ccc(Cl)cc1 [Compound 131] cannot be ordered by IC50: > 10 µM for the first, > 10 µM for the second.

CC(=O)Nc1cccc(NC(=O)CSc2nc3cc(C)ccc3[nH]2)c1 [Compound 123] and Cc1cccc(NC(=O)CSc2nc3cccnc3[nH]2)c1 [Compound 121] cannot be ordered by IC50: > 10 µM for the first, > 10 µM for the second.

O=C(CSc1nc2cc(C(=O)O)ccc2[nH]1)Nc1ccc(Cl)cc1 [Compound 97] and COC(=O)c1ccc2[nH]c(SCC(=O)Nc3ccc(Cl)cc3)nc2c1 [Compound 109] cannot be ordered by IC50: > 10 µM for the first, > 10 µM for the second.

NS(=O)(=O)c1ccc2[nH]c(SCC(=O)Nc3ccc(Cl)cc3)nc2c1 [Compound 99] and CS(=O)(=O)c1ccc2[nH]c(SCC(=O)Nc3ccc(Cl)cc3)nc2c1 [Compound 98] cannot be ordered by IC50: > 10 µM for the first, > 10 µM for the second.

CC(C)(O)c1cc(Cl)cc2nc(SCC(=O)Nc3ccc(Oc4cccnc4)cc3)[nH]c12 [Compound 171, 2-((5-chloro-7-(2-hydroxypropan-2-yl)-1H-benzo[d]imidazol-2-yl)thio)-N-(4-(pyridin-3-yloxy)phenyl)acetamide] and O=C(CSc1nc2cc(Cl)ccc2[nH]1)Nc1ccc(Oc2cccnc2)cc1Cl [Compound 165, 2-((5-Chloro-1H-benzo[d]imidazol-2-yl)thio)-N-(2-chloro-4-(pyridin-3-yloxy)phenyl)acetamide] cannot be ordered by IC50: < 0.1 µM for the first, < 0.1 µM for the second.

O=C(CSc1nc2cccnc2[nH]1)Nc1ccccc1 [Compound 122] and N#Cc1ccc(NC(=O)CSc2nc3ccc(-c4ncco4)cc3[nH]2)cc1 [Compound 128] cannot be ordered by IC50: > 10 µM for the first, > 10 µM for the second.

First: COc1cc(Cl)cc2nc(SCC(=O)Nc3ccc(Cl)cc3)[nH]c12 [Compound 166, 2-((5-Chloro-7-methoxy-1H-benzo[d]imidazol-2-yl)thio)-N-(4-chlorophenyl)acetamide]
Second: COc1cc(Oc2cccnc2)ccc1NC(=O)CSc1nc2cc(Cl)ccc2[nH]1 [Compound 161, 2-((5-chloro-1H-benzo[d]imidazol-2-yl)thio)-N-(2-methoxy-4-(pyridin-3-yloxy)phenyl)acetamide]
The IC50 of the first is higher: 0.1 to 1 µM for the first, < 0.1 µM for the second.

For COc1cc(Oc2cccnc2)ccc1NC(=O)CSc1nc2cc(C#N)ccc2[nH]1 [Compound 169, 2-((5-Cyano-1H-benzo[d]imidazol-2-yl)thio)-N-(2-methoxy-4-(pyridin-3-yloxy)phenyl)acetamide], the IC50 was 0.1 to 1 µM.
